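Results reflect a 48-hour exposure of cells in 96-well plates to compound at five concentrations. The concentration for 50% growth inhibition is given as GI50. TGI: concentration producing complete growth inhibition.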 Where a SMILES comes first, the peptide text is derived from it. The star is where a group is joined. Boc = CC(C)(C)OC(=O)*; OBn = c1ccc(CO*)cc1
How the values were obtained:
Assay in all cases: NCI anticancer screen, dose series, 48 h
[1] = tested on: NCI-H460 lung
[2] = tested on: OVCAR-5 ovarian
[3] = tested on: SK-MEL-28 melanoma
[4] = tested on: MCF7 breast
[5] = tested on: M14 melanoma
[6] = tested on: LOX IMVI melanoma
[7] = tested on: SNB-75 CNS
[8] = tested on: MOLT-4 leukemia
[9] = tested on: KM12 colon
[10] = tested on: RPMI-8226 leukemia

Row | Compound | TGI [1] | TGI [2] | TGI [3] | TGI [4] | TGI [5] | TGI [6] | TGI [7] | TGI [8] | TGI [9] | TGI [10] | GI50 [10] | GI50 [1] | GI50 [2] | GI50 [3] | GI50 [4] | GI50 [5] | GI50 [7] | GI50 [8] | GI50 [9] | GI50 [6]
1 | Cc1cc(-c2nc3ccccc3s2)ccc1NC(=O)[C@H](C)N | 25.6 µM | 19.1 µM | 29.3 µM | 20.4 µM | 19.2 µM | > 100 µM | 26.1 µM | 37.8 µM | 31.1 µM | – | – | – | – | – | – | – | – | – | – | –
2 | O=c1[nH]c(=O)n(Cc2ccccc2CO)cc1Sc1ccccc1 | > 100 µM | > 100 µM | > 100 µM | > 100 µM | 41.2 µM | – | > 100 µM | > 100 µM | > 100 µM | – | – | – | – | – | – | – | – | – | – | –
3 | O=c1cc(N2CCCC2)[nH]c(=O)n1-c1cccc(C(F)(F)F)c1 | > 100 µM | > 100 µM | – | > 100 µM | > 100 µM | > 100 µM | > 100 µM | > 100 µM | > 100 µM | > 100 µM | – | – | – | – | – | – | – | – | – | –
4 | CCCCc1ccc(Nc2ncc3[nH]cnc3n2)cc1 | – | > 100 µM | – | > 100 µM | 38.9 µM | 37.6 µM | 35.5 µM | > 100 µM | 45 µM | 71.2 µM | – | – | – | – | – | – | – | – | – | –
5 | O=C(c1ccccc1)c1ccc2nc(-c3c(Cl)c(Cl)c(Cl)c(Cl)c3C(=O)N/N=C/c3ccccc3)[nH]c2c1 | – | > 100 µM | > 100 µM | 41.9 µM | > 100 µM | > 100 µM | 92.6 µM | 54.1 µM | > 100 µM | 63 µM | – | – | – | – | – | – | – | – | – | –
6 | C#CC(F)(F)[C@]1(O)CC[C@H]2[C@@H]3CCC4=CC(=O)CCC4=C3[C@@H](c3ccc(C(C)=O)cc3)C[C@@]21C | > 68.2 µM | > 100 µM | > 72.4 µM | 63 µM | > 84.9 µM | – | > 100 µM | 63.4 µM | 52.9 µM | 6.25 µM | 0.333 µM | 21.5 µM | 28.3 µM | 16.2 µM | 2.64 µM | 16.9 µM | 3.82 µM | 3.9 µM | 0.123 µM | –
7 | Cc1nc2ccc(S(=O)(=O)O)cc2c(=O)n1-c1ccc(C(=O)NN2C(=O)C(Cl)C2c2ccccc2O)cc1 (centres undefined) | – | > 100 µM | > 100 µM | > 100 µM | > 100 µM | > 100 µM | > 100 µM | > 100 µM | > 100 µM | > 100 µM | – | – | – | – | – | – | – | – | – | –
8 | C=C(C)C(=O)[C@@]12C(=O)[C@@H](C)CC[C@H]1[C@H](C)C[C@@H]2C=C(C)C | – | 55.2 µM | > 100 µM | 52.3 µM | > 100 µM | 37 µM | > 100 µM | 65.7 µM | 56.4 µM | > 100 µM | – | – | – | – | – | – | – | – | – | –
9 | Fc1ccc(N=NN2CCCC2)cc1 | > 100 µM | > 100 µM | > 100 µM | > 100 µM | > 100 µM | > 100 µM | – | > 100 µM | > 100 µM | > 100 µM | – | – | – | – | – | – | – | – | – | –
10 | CCCCOP1(=O)C=C(C)C(=C(Cl)Cl)C(C)=C1 (centres undefined) | 36 µM | > 100 µM | 23.9 µM | – | 54.8 µM | 33.1 µM | > 94.4 µM | > 48.2 µM | 4.45 µM | > 24.4 µM | – | – | – | – | – | – | – | – | – | –
11 | CC(NC(=O)C(NC(=O)OC(C)(C)C)C(C)C)C(=O)N1CCCC1C(=O)NCC(=O)NC(C(=O)NCC(=O)OCc1ccccc1)C(C)C (centres undefined) (Boc-VAPGVG-OBn; configuration not given here) | > 100 µM | > 100 µM | > 100 µM | > 100 µM | > 100 µM | > 100 µM | > 100 µM | – | – | > 100 µM | – | – | – | – | – | – | – | – | – | –
12 | CC(=O)O[C@]12CCCC1C1(O)C(O)CCCC12 (some centres undefined) | > 100 µM | – | > 100 µM | – | > 100 µM | > 100 µM | > 100 µM | > 100 µM | > 100 µM | > 100 µM | – | – | – | – | – | – | – | – | – | –
13 | COc1ccc2c(c1)n([O-])c(C#N)c(N1CCN(c3ccc([N+](=O)[O-])cc3)CC1)[n+]2=O | > 100 µM | > 100 µM | > 69.7 µM | – | > 100 µM | > 28.8 µM | 66.2 µM | – | > 79.1 µM | – | – | – | – | – | – | – | – | – | – | –
14 | CN(C)CCSC(=Nc1ccccc1)N1CCCCC1 | 33.8 µM | 35.3 µM | 28 µM | – | 29.9 µM | 30 µM | 59.6 µM | 58.7 µM | 31 µM | 87.4 µM | – | – | – | – | – | – | – | – | – | –
15 | COc1ccc(N=N/C(=N/NC(=O)c2ccccc2)c2ccc(N(CCC#N)CCC#N)cc2C)cc1 | > 100 µM | > 100 µM | – | > 100 µM | > 100 µM | – | > 100 µM | > 100 µM | > 100 µM | > 100 µM | – | – | – | – | – | – | – | – | – | –
16 | O=[Se](=O)c1ccccc1.O=[Se](=O)c1ccccc1.[Cu] | 20 µM | 37.9 µM | 30.7 µM | 62 µM | – | 19.5 µM | 37.6 µM | 65.8 µM | 24.6 µM | 63.1 µM | 17 µM | 8 µM | 23 µM | 16.6 µM | 24.1 µM | – | 22 µM | 12 µM | 9.38 µM | 7.65 µM
17 | COC(=O)/C=C(/C(=O)OC)c1c(C)c(C)c2c(C)cc(C)cc(C)c1-2 | > 100 µM | > 100 µM | > 100 µM | > 100 µM | 37.3 µM | > 100 µM | – | > 100 µM | > 100 µM | > 100 µM | – | – | – | – | – | – | – | – | – | –
18 | COc1cc(CC2c3cc(OC)c(OC)cc3CCN2C)c(Oc2cc3c(cc2OC)-c2c(O)c(OC)cc4c2C(C3)N(C)CC4)cc1OC (centres undefined) | 44.8 µM | > 100 µM | 63.2 µM | 29.1 µM | 22.8 µM | 67.9 µM | 31.3 µM | > 100 µM | 31.3 µM | – | – | – | – | – | – | – | – | – | – | –
19 | Cc1cccc(NC(=O)C(=O)C(C(=O)c2ccccc2F)C2OC(=O)c3ccccc32)c1Cl (centres undefined) | > 100 µM | > 100 µM | > 100 µM | – | > 100 µM | 43.3 µM | 64.2 µM | > 100 µM | 94.5 µM | > 100 µM | – | – | – | – | – | – | – | – | – | –
20 | COC(=O)/C=C1\CCC(C)(C(=O)NS(=O)(=O)c2ccc(C)cc2)C1(C)C (centres undefined) | > 100 µM | > 100 µM | – | > 100 µM | > 100 µM | > 100 µM | – | > 100 µM | > 100 µM | > 100 µM | – | – | – | – | – | – | – | – | – | –
21 | CCOC(=O)C(=Cc1ccc(C(=O)OC)cc1)C(=O)OCC | 55.2 µM | 21.9 µM | 3.34 µM | – | 3.36 µM | 3.55 µM | 4.65 µM | 7.74 µM | 8.15 µM | 4.73 µM | – | – | – | – | – | – | – | – | – | –

— PubChem BioAssay (NCI)
